From patent US20100028889A1, “COMPANION DIAGNOSTIC ASSAYS FOR CANCER THERAPY” (ABBOTT LABORATORIES, priority 2006, published 2010)
Where two headings read alike, the source gives them in different places.

Legend:
Experiment in all cases: sensitivity of SCLC cell line, procedure of Oltersdorf
Assay type in all cases: cell-based
[1] = test system: NCI-H1688; conditions: Homo sapiens, read-out: sensitivity class by EC50
Description: (§1) The following SCLC cell lines were obtained from ATCC (Manassis, Va.): NCI-H889, NCI-H1963, NCI-H1417, NCI-H146, NCI-H187, DMS53, NCI-H510, NCI-H209, NCI-H211, NCI-H345, NCI-H524, NCI-H69, DMS79, SHP77, NCI-H1688, NCI-H446, NCI-H740, NCI-H1048, NCI-H82, NCI-H196, SW1271, H69AR, NCI-H526, NCI-H865, NCI-H748, NCI-H711, and DMS114. All cells were cultured in the ATCC recommended media at 37° C. in a humidified atmosphere containing 5% CO2. The following leukemia and lymphoma cell lines were obtained from ATCC (Manassis, Va.): MV-4-11, RS4;11, Loucy, KG-1A, DOHH2, Rs11380, CCRF-HSB-2, CCRF-CEM, CEM/C1, Reh, SUP-B15, MOLT-4, SUDHL4, HL-60, RPMI 8226, A3, Daudi, WSU-NHL, Pfeiffer, Jurkat I 9.2, Jurkat, MEG-01, U-937, K-562, and Raji.
(§2) The 27 SCLC cell lines were tested for sensitivity to ABT-737 using the procedure described in Oltersdorf, T., “An inhibitor of Bcl-2 family proteins induces regression of solid tumours”, Nature, 435: 677-681, 2005, with a cell line classified as sensitive if its EC50<5 μM and as resistant if its EC50>5 µM. The sensitive cell line group consisted of NCI-H889, NCI-H1963, NCI-H1417, NCI-H146, DMS 53, NCI-H187, NCI-H510, NCI-H209, NCI-H345, NCI-H526, NCI-H211, NCI-H865, NCI-H524, NCI-H748, DMS 79, NCI-H69, NCI-H711, SHP 77, NCI-H1688, and the resistant cell line group was comprised of NCI-H446, NCI-H740, NCI-H1048, NCI-H82, NCI-H196, SW1271, DMS 114, and NCI-H69AR.
(§3) The 22 SCLC cell lines were tested for sensitivity to ABT-263 using the procedure described in Oltersdorf, T., “An inhibitor of Bcl-2 family proteins induces regression of solid tumours”, Nature, 435: 677-681, 2005, with a cell line classified as sensitive if its EC50<5 µM and as resistant if its EC50>5 μM. The sensitive cell line group consisted of NCI-H146, NCI-H889, NCI-H1963, NCI-H187, NCI-H1417, NCI-H211, NCI-H69, NCI-H209, NCI-H510, DMS 53, DMS 79, NCI-H345, NCI-H1048, SHP 77, NCI-H446 and the resistant cell line group was comprised of NCI-H1688, NCI-H740, NCI-H82, NCI-H69AR, SW1271, DMS 114 and NCI-H 196.

[2] = test system: NCI-H510; conditions: Homo sapiens, read-out: sensitivity class by EC50
Description: as §1, §2, §3

[3] = test system: DMS 79; conditions: Homo sapiens, read-out: sensitivity class by EC50
Description: as §1, §2, §3

[4] = test system: NCI-H1048; conditions: Homo sapiens, read-out: sensitivity class by EC50
Description: as §1, §2, §3

[5] = test system: NCI-H740; conditions: Homo sapiens, read-out: sensitivity class by EC50
Description: as §1, §2, §3

[6] = test system: NCI-H209; conditions: Homo sapiens, read-out: sensitivity class by EC50
Description: as §1, §2, §3

[7] = test system: NCI-H196; conditions: Homo sapiens
Description: as §1, §2, §3

[8] = test system: NCI-H69AR; conditions: Homo sapiens, read-out: sensitivity class by EC50
Description: as §1, §2, §3

[9] = test system: NCI-H146; conditions: Homo sapiens, read-out: sensitivity class by EC50
Description: as §1, §2, §3

[10] = test system: NCI-H1417; conditions: Homo sapiens, read-out: sensitivity class by EC50
Description: as §1, §2, §3

[11] = test system: SHP 77; conditions: Homo sapiens, SHP77, read-out: sensitivity class by EC50
Description: as §1, §2, §3

[12] = test system: DMS 53; conditions: Homo sapiens, read-out: sensitivity class by EC50
Description: as §1, §2, §3

[13] = test system: NCI-H345; conditions: Homo sapiens, read-out: sensitivity class by EC50
Description: as §1, §2, §3

[14] = test system: NCI-H446; conditions: Homo sapiens, read-out: sensitivity class by EC50
Description: as §1, §2, §3

[15] = test system: NCI-H211; conditions: Homo sapiens, read-out: sensitivity class by EC50
Description: as §1, §2, §3

[16] = test system: NCI-H69; conditions: Homo sapiens, read-out: sensitivity class by EC50
Description: as §1, §2, §3

[17] = test system: DMS 114; conditions: Homo sapiens, read-out: sensitivity class by EC50
Description: as §1, §2, §3

[18] = test system: NCI-H82; conditions: Homo sapiens, read-out: sensitivity class by EC50
Description: as §1, §2, §3

[19] = test system: SW1271; conditions: Homo sapiens, read-out: sensitivity class by EC50
Description: as §1, §2, §3

[20] = test system: NCI-H889; conditions: Homo sapiens, read-out: sensitivity class by EC50
Description: as §1, §2, §3

[21] = test system: NCI-H187; conditions: Homo sapiens, read-out: sensitivity class by EC50
Description: as §1, §2, §3

[22] = test system: NCI-H1963; conditions: Homo sapiens, read-out: sensitivity class by EC50
Description: as §1, §2, §3

SMILES	EC50 [1]	EC50 [2]	EC50 [3]	EC50 [4]	EC50 [5]	EC50 [6]	EC50 [8]	EC50 [9]	EC50 [10]	EC50 [11]	EC50 [12]	EC50 [13]	EC50 [14]	EC50 [15]	EC50 [16]	EC50 [17]	EC50 [18]	EC50 [19]	EC50 [20]	EC50 [21]	further results
CC1(C)CCC(c2ccc(Cl)cc2)=C(CN2CCN(c3ccc(C(=O)NS(=O)(=O)c4ccc(N[C@H](CCN5CCOCC5)CSc5ccccc5)c(S(=O)(=O)C(F)(F)F)c4)cc3)CC2)C1 [ABT-263, N-(4-(4-((2-(4-chlorophenyl)-5,5-dimethyl-1-cyclohex-1-en-1-yl)methyl)piperazin-1-yl)benzoyl)-4-(((1R)-3-(morpholin-4-yl)-1-((phenylsulfanyl)methyl)propyl)amino)-3-((trifluoromethyl)sulfonyl)benzenesulfonamide]	> 5 µM	< 5 µM	< 5 µM	< 5 µM	> 5 µM	< 5 µM	> 5 µM	< 5 µM	< 5 µM	< 5 µM	< 5 µM	< 5 µM	< 5 µM	< 5 µM	< 5 µM	> 5 µM	> 5 µM	> 5 µM	< 5 µM	< 5 µM	EC50 ([7]; NCI-H 196, read-out: sensitivity class by EC50): > 5 µM; EC50 [22]: < 5 µM
CN(C)CC[C@H](CSc1ccccc1)Nc1ccc(S(=O)(=O)NC(=O)c2ccc(N3CCN(Cc4ccccc4-c4ccc(Cl)cc4)CC3)cc2)cc1[N+](=O)[O-] [ABT-737, N-(4-(4-((4′-chloro(1,1′-biphenyl)-2-yl)methyl)piperazin-1-yl)benzoyl)-4-(((1R)-3-(dimethylamino)-1-((phenylsulfanyl)methyl)propyl)amino)-3-nitrobenzenesulfonamide]	< 5 µM	< 5 µM	< 5 µM	> 5 µM	> 5 µM	< 5 µM	> 5 µM	< 5 µM	< 5 µM	< 5 µM	< 5 µM	< 5 µM	> 5 µM	< 5 µM	< 5 µM	> 5 µM	> 5 µM	> 5 µM	< 5 µM	< 5 µM	EC50 ([7]; read-out: sensitivity class by EC50): > 5 µM; EC50 [22]: < 5 µM
